# Results from paper PMC8398451, “Molecular Engineering of Curcumin, an Active Constituent of Curcuma longa L. (Turmeric) of the Family Zingiberaceae with Improved Antiproliferative Activity” (Plants, 2021).
# Tests used:
# MCF7 = assay: NCI antiproliferative SRB assay, Breast Cancer panel; assay type: cell-based, Human; settings: one dose 10 µM
# RXF 393 = assay: NCI antiproliferative SRB assay, Renal Cancer panel; assay type: cell-based, Human; settings: one dose 10 µM
# SK-OV-3 = assay: NCI antiproliferative SRB assay, Ovarian Cancer panel; assay type: cell-based, Human; settings: one dose 10 µM
# CCRF-CEM = assay: NCI antiproliferative SRB assay, Leukemia panel; assay type: cell-based, Human; settings: one dose 10 µM
# HCT-116 = assay: NCI antiproliferative SRB assay, Colon Cancer panel; assay type: cell-based, Human; settings: one dose 10 µM
# MDA-MB-435 = assay: NCI antiproliferative SRB assay, Melanoma panel; assay type: cell-based; settings: one dose 10 µM
# ACHN = assay: NCI antiproliferative SRB assay, Renal Cancer panel; assay type: cell-based, Human; settings: one dose 10 µM
# A498 = assay: as above; assay type: cell-based, Human; settings: one dose 10 µM
# Leukemia cell line panel = assay: NCI antiproliferative assay, panel summary; assay type: cell-based, Human; settings: 10 µM
# HS 578T = assay: NCI antiproliferative SRB assay, Breast Cancer panel; assay type: cell-based, Human; settings: one dose 10 µM
# UACC-257 = assay: NCI antiproliferative SRB assay, Melanoma panel; assay type: cell-based, Human; settings: one dose 10 µM
# [1] = system: CNS Cancer cell line panel; assay: NCI antiproliferative assay, panel summary; assay type: cell-based, Human; settings: 10 µM
# MOLT-4 = assay: NCI antiproliferative SRB assay, Leukemia panel; assay type: cell-based, Human; settings: one dose 10 µM
# NCI-H522 = assay: NCI antiproliferative SRB assay, Non-Small Cell Lung Cancer panel; assay type: cell-based, Human; settings: one dose 10 µM
# RPMI-8226 = assay: NCI antiproliferative SRB assay, Leukemia panel; assay type: cell-based, Human; settings: one dose 10 µM
# A549/ATCC = assay: NCI antiproliferative SRB assay, Non-Small Cell Lung Cancer panel; assay type: cell-based, Human; settings: one dose 10 µM
# TK-10 = assay: NCI antiproliferative SRB assay, Renal Cancer panel; assay type: cell-based, Human; settings: one dose 10 µM
# SNB-75 = assay: NCI antiproliferative SRB assay, CNS Cancer panel; assay type: cell-based, Human; settings: one dose 10 µM
# [2] = system: Colon Cancer cell line panel; assay: NCI antiproliferative assay, panel summary; assay type: cell-based, Human; settings: 10 µM
# MALME-3M = assay: NCI antiproliferative SRB assay, Melanoma panel; assay type: cell-based, Human; settings: one dose 10 µM
# DU-145 = assay: NCI antiproliferative SRB assay, Prostate Cancer panel; assay type: cell-based, Human; settings: one dose 10 µM
# [3] = system: Prostate Cancer cell line panel; assay: NCI antiproliferative assay, panel summary; assay type: cell-based, Human; settings: 10 µM
# BT-549 = assay: NCI antiproliferative SRB assay, Breast Cancer panel; assay type: cell-based, Human; settings: one dose 10 µM
# HOP-62 = assay: NCI antiproliferative SRB assay, Non-Small Cell Lung Cancer panel; assay type: cell-based, Human; settings: one dose 10 µM
compound,measurement,setting,value
COc1ccc(/C=C/c2cc(/C=C/c3ccc(OC)c(O)c3)n(-c3cccc(Cl)c3)c(=S)n2)cc1O [3a],%GI,MCF7,32.09%
same,GP (growth percent),MCF7,67.91
same,%GI,RXF 393,7.37%
same,GP (growth percent),RXF 393,92.63
same,%GI,SK-OV-3,−0.88%
same,GP (growth percent),SK-OV-3,100.88
same,%GI,CCRF-CEM,46.57%
same,GP (growth percent),CCRF-CEM,53.43
same,%GI,HCT-116,38.12%
same,GP (growth percent),HCT-116,61.88
same,%GI,MDA-MB-435,18.68%
same,GP (growth percent),MDA-MB-435,81.32
same,%GI,ACHN,4.99%
same,GP (growth percent),ACHN,95.01
same,%GI,A498,−4.38%
same,GP (growth percent),A498,104.38
same,Mean % GI,Leukemia cell line panel,41.39%
same,%GI,HS 578T,15.67%
same,GP (growth percent),HS 578T,84.33
same,%GI,UACC-257,47.09%
same,GP (growth percent),UACC-257,52.91
same,Mean % GI,[1],14.74%
same,%GI,MOLT-4,53.78%
same,GP (growth percent),MOLT-4,46.22
same,%GI,NCI-H522,62.11%
same,GP (growth percent),NCI-H522,37.89
same,%GI,RPMI-8226,39.41%
same,GP (growth percent),RPMI-8226,60.59
same,%GI,A549/ATCC,27.44%
same,GP (growth percent),A549/ATCC,72.56
same,%GI,TK-10,−12.60%
same,GP (growth percent),TK-10,112.60
same,%GI,SNB-75,19.22%
same,GP (growth percent),SNB-75,80.78
same,Mean % GI,[2],16.72%
same,%GI,MALME-3M,10.54%
same,GP (growth percent),MALME-3M,89.46
same,%GI,DU-145,19.16%
same,GP (growth percent),DU-145,80.84
same,Mean % GI,[3],14.98%
same,%GI,BT-549,27.48%
same,GP (growth percent),BT-549,72.52
same,%GI,HOP-62,4.94%
same,GP (growth percent),HOP-62,95.06
